2 compounds from the NIST ThermoML archive (doi:10.1016/j.fluid.2015.02.014) can be followed below.

The conditions of this series: Liquid, Closed cell (Static) method.

The structures appear in SMILES notation. Numbers after ± are expanded uncertainties.

Take `C=C(F)C(F)(F)F` [2,3,3,3-tetrafluoro-1-propene]: the vapor or sublimation pressure (in general, the equilibrium pressure above the liquid or solid) is, setting by setting: (283.15 K) 437.9 ± 1.2 kPa; (293.15 K) 591.5 ± 1.3 kPa; (303.15 K) 782.9 ± 1.5 kPa; (313.15 K) 1018.2 ± 1.8 kPa; (323.15 K) 1302.4 ± 2.1 kPa.

Take `CCF` [fluoroethane]: the “vapor or sublimation pressure” value is reported as 601.2 ± 1.3 kPa (283.15 K); 805.6 ± 1.5 kPa (293.15 K); 1058.8 ± 1.8 kPa (303.15 K); 1365.8 ± 2.2 kPa (313.15 K); 1735.2 ± 2.7 kPa (323.15 K).
